The record followed here is patent US8580811B2 (Ligand Pharmaceuticals Incorporated, priority 2005, dated 2013).

The term Ki denotes a measure of affinity in units of concentration, obtained from inhibition or displacement. A lower Ki goes with tighter binding.

SMILES strings stand for the structures. Where only a bound is given, the exact number is not on record here.

The assay addresses T1, human AR (Homo sapiens, UniProt P10275).
T1 construct: expressed in transfected cells; host or cells: COS-1 cells
T1 sequence (P10275 1-920): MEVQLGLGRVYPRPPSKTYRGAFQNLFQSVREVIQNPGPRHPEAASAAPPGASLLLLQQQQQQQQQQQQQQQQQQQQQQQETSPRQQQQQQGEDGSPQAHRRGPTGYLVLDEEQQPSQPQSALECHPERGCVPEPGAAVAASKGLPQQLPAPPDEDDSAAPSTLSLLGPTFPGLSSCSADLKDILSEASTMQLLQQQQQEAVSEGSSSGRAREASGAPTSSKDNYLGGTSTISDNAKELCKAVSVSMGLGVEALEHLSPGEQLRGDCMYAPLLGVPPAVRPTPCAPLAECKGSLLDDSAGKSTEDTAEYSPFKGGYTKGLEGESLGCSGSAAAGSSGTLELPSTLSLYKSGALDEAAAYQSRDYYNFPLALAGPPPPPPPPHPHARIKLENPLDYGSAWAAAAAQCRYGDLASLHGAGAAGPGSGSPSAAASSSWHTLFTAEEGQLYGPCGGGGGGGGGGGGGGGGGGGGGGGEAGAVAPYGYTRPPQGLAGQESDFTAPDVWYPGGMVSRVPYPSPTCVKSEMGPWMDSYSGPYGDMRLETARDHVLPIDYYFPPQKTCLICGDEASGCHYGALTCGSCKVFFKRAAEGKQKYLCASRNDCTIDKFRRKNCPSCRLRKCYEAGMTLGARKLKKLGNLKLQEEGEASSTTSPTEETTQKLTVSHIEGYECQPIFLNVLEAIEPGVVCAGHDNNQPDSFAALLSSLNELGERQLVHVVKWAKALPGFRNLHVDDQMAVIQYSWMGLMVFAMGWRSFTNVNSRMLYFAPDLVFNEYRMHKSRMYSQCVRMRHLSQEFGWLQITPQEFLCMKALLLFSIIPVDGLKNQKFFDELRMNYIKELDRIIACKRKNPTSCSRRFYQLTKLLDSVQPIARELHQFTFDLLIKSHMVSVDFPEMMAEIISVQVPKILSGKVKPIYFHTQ
Kind of assay: IR Binding Assay: whole cell competitive binding of test compounds against 3H-DHT in COS-1 cells transfected with pRShAR. As to the method: For the whole cell binding assay, COS-1 cells in 96-well microtiter plates including DMEM-10% FBS were transfected as described above with the following plasmid DNA: pRShAR (2 ng/well), pRS-β-Gal (50 ng/well) and pGEM (48 ng/well). Six hours after transfection, media was removed, the cells were washed with PBS and fresh media was added. The next day, the media was changed to DMEM-serum free to remove any endogenous ligand that might be complexed with the receptor in the cells.
After 24 hours in serum-free media, either a saturation analysis to determine the Kd for tritiated dihydrotestosterone (^3H-DHT) on human AR or a competitive binding assay to evaluate the ability of test compounds to compete with ^3H-DHT for AR was performed. […] For the competitive binding assay, media including 1 nM ^3H-DHT and test compounds in concentrations ranging from 10^−10 to 10^−6 M were added to the cells. Three replicates were used for each sample. After three hours at 37° C., an aliquot of the total binding media at each concentration of ^3H-DHT was removed to estimate the amount of free ^3H-DHT. The remaining media was removed, the cells were washed three times with PBS to remove unbound ligand, and cells were lysed with a Triton X-100-based buffer. The lysates were assayed for amount of bound ^3H-DHT and β-Gal activity using a scintillation counter or spectrophotometer, respectively.
For the saturation analyses, the difference between the total binding and the nonspecific binding, normalized by the β-Gal rate, was defined as specific binding. The specific binding was evaluated by Scatchard analysis to determine the Kd for ^3H-DHT. See e.g., D. Rodbard, “Mathematics and statistics of ligand assays: an illustrated guide” In: J. Langon and J. J. Clapp, eds., Ligand Assay, Masson Publishing U.S.A., Inc., New York, pp. 45-99, (1981), the disclosure of which is herein incorporated by reference. For the competition studies, the data was plotted as the amount of ^3H-DHT (% of control in the absence of test compound) remaining over the range of the dose-response curve for a given compound. […] The Ki values were determined by application of the Cheng-Prusoff equation to the IC50 values, where:
[formula] After correcting for non-specific binding, IC50 values were determined. […] The IC50 value was determined graphically from a log-logit plot of the data. The Ki values were determined by application of the Cheng-Prusoff equation to the IC50 values, the labeled ligand concentration and the Kd of the labeled ligand. see e.g., Cheng, Y. C. and Prusoff, W. H. Biochem. Pharmacol. 22:3099 (1973).
`Cc1c(-c2ccco2)n(C[C@H](O)C(F)(F)F)c2ccc3[nH]c(=O)cc(Cl)c3c12` [Compound 277, (S)-9-Chloro-2-(2-furyl)-1-methyl-3-(3,3,3-trifluoro-2-hydroxy-propyl)-3,6-dihydro-pyrrolo[3,2-f]quinolin-7-one] registered a Ki below 5 nM.

Regarding `Cc1c(C)n(CCCC(F)(F)F)c2ccc3[nH]c(=O)cc(C(F)(F)F)c3c12` [Compound 227, 1,2-Dimethyl-3-(4,4,4-trifluorobutyl)-9-trifluoromethyl-3,6-dihydro-pyrrolo[3,2-f]-quinolin-7-one], the Ki was below 5 nM.

With `Cc1c(C)n(CCO)c2ccc3[nH]c(=O)cc(C(F)(F)F)c3c12` [Compound 240, 1,2-Dimethyl-3-(2-hydroxyethyl)-9-trifluoromethyl-3,6-dihydro-pyrrolo[3,2-f]quinolin-7-one], the Ki is above 10 nM.

Consider `Cc1c(C)n(CC(F)(F)Cl)c2ccc3[nH]c(=O)cc(C(F)(F)F)c3c12` [Compound 220, 1,2-Dimethyl-3-(2-chloro-2,2-difluoroethyl)-9-trifluoromethyl-3,6-dihydro-pyrrolo[3,2-f]-quinolin-7-one], for which the Ki is below 5 nM.

In the case of `Cc1c(C)n(CCCO)c2ccc3[nH]c(=O)cc(C(F)(F)F)c3c12` [Compound 249, 1,2-Dimethyl-3-(3-hydroxypropyl)-9-trifluoromethyl-3,6-dihydro-pyrrolo[3,2-f]quinolin-7-one], the Ki is below 5 nM.

`CC1c2c(ccc3[nH]c(=O)cc(Cl)c23)N(CCc2cccs2)C1C` (racemic) [Compound 142, (±)-9-Chloro-1,2-dimethyl-3-(2-thien-2-yl-ethyl)-1,2,3,6-tetrahydro-pyrrolo[3,2-f]-quinolin-7-one] had a Ki below 5 nM.

In turn, `Cc1c(C)n(CC(O)C(F)(F)F)c2ccc3[nH]c(=O)cc(Cl)c3c12` (racemic) [Compound 231, (±)-9-Chloro-1,2-dimethyl-3-(3,3,3-trifluoro-2-hydroxy-propyl)-3,6-dihydro-pyrrolo[3,2-f]-quinolin-7-one] displayed an inhibition constant (Ki) below 5 nM.

In turn, `Cc1c(CO)n(CC(F)(F)F)c2ccc3[nH]c(=O)cc(Cl)c3c12` [Compound 230, 9-Chloro-2-hydroxymethyl-1-methyl-3-(2,2,2-trifluoro-ethyl)-3,6-dihydro-pyrrolo[3,2-f]-quinolin-7-one] gave a Ki above 10 nM.

Consider `Cc1c(C(F)(F)F)n(CC(O)C(F)(F)F)c2ccc3[nH]c(=O)cc(Cl)c3c12` (racemic) [Compound 233, (±)-9-Chloro-1-methyl-3-(3,3,3-trifluoro-2-hydroxypropyl)-2-trifluoromethyl-3,6-dihydropyrrolo[3,2-f]quinolin-7-one], for which the Ki is below 5 nM.

The molecule `Cc1c(-c2nccs2)n(CC(F)(F)C(F)(F)F)c2ccc3[nH]c(=O)cc(Cl)c3c12` [Compound 262, 9-Chloro-1-methyl-3-(2,2,3,3,3-pentafluoropropyl)-2-(1,3-thiazol-2-yl)-3,6-dihydro-pyrrolo[3,2-f]quinolin-7-one] yielded a Ki of 5 to 10 nM.

Turning to `CC1c2c(ccc3[nH]c(=O)cc(Cl)c23)N(CCC(F)(F)F)C1C` (racemic) [Compound 145, (±)-9-Chloro-1,2-dimethyl-3-(3,3,3-trifluoropropyl)-1,2,3,6-tetrahydro-pyrrolo[3,2-f]-quinolin-7-one], the Ki was below 5 nM.

`Cc1c(C)n(CCCF)c2ccc3[nH]c(=O)cc(C(F)(F)F)c3c12` [Compound 248, 1,2-Dimethyl-3-(3-fluoropropyl)-9-trifluoromethyl-3,6-dihydro-pyrrolo[3,2-f]quinolin-7-one]: the Ki was below 5 nM.

`Cc1c(-c2ccccc2F)n(CC(F)(F)F)c2ccc3[nH]c(=O)cc(Cl)c3c12` [Compound 199, 9-Chloro-2-(2-fluorophenyl)-1-methyl-3-(2,2,2-trifluoroethyl)-3,6-dihydro-pyrrolo[3,2-f]quinolin-7-one] showed a Ki below 5 nM.

`Cc1c(-c2ccccc2)[nH]c2ccc3[nH]c(=O)cc(Cl)c3c12` [Compound 110, 9-Chloro-1-methyl-2-phenyl-3,6-dihydro-pyrrolo[3,2-f]quinolin-7-one] gave a Ki below 5 nM.
